From PubChem BioAssay (NCI)
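Method: 48-hour compound exposure of cells in 96-well plates, five concentrations, linear interpolation of endpoints. The concentration for 50% growth inhibition is given as GI50. Definition used: TGI = concentration required for complete inhibition of growth.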

Tests used:
Test in all cases: growth of human tumour cells (NCI), 48 h
NCI/ADR-RES ovarian = tested on: NCI/ADR-RES ovarian
MOLT-4 leukemia = tested on: MOLT-4 leukemia
NCI-H522 lung = tested on: NCI-H522 lung
MCF7 breast = tested on: MCF7 breast
SF-295 CNS = tested on: SF-295 CNS
SW-620 colon = tested on: SW-620 colon
MALME-3M melanoma = tested on: MALME-3M melanoma
SN12C renal = tested on: SN12C renal
MDA-MB-435 = tested on: MDA-MB-435
A549 NSCLC = tested on: A549 NSCLC
OVCAR-5 ovarian = tested on: OVCAR-5 ovarian
MDA-MB-231 breast = tested on: MDA-MB-231 breast
CAKI-1 renal = tested on: CAKI-1 renal
IGROV1 ovarian = tested on: IGROV1 ovarian
SR leukemia = tested on: SR leukemia
SF-268 CNS = tested on: SF-268 CNS
786-0 renal = tested on: 786-0 renal
HCT-116 colon = tested on: HCT-116 colon
RXF 393 renal = tested on: RXF 393 renal
A498 renal = tested on: A498 renal
HS 578T breast = tested on: HS 578T breast
HOP-62 NSCLC = tested on: HOP-62 NSCLC
SK-MEL-28 melanoma = tested on: SK-MEL-28 melanoma
CCRF-CEM leukemia = tested on: CCRF-CEM leukemia
T-47D breast = tested on: T-47D breast
LOX IMVI melanoma = tested on: LOX IMVI melanoma
OVCAR-8 ovarian = tested on: OVCAR-8 ovarian
OVCAR-4 ovarian = tested on: OVCAR-4 ovarian
SF-539 CNS = tested on: SF-539 CNS
OVCAR-3 ovarian = tested on: OVCAR-3 ovarian
HT29 colon = tested on: HT29 colon
TK-10 renal = tested on: TK-10 renal
COLO 205 colon = tested on: COLO 205 colon
PC-3 prostate = tested on: PC-3 prostate
HCT-15 colon = tested on: HCT-15 colon
NCI-H23 lung = tested on: NCI-H23 lung
HCC-2998 colon = tested on: HCC-2998 colon
M14 melanoma = tested on: M14 melanoma
KM12 colon = tested on: KM12 colon
DU-145 prostate = tested on: DU-145 prostate
SNB-19 CNS = tested on: SNB-19 CNS
SNB-75 CNS = tested on: SNB-75 CNS
HOP-92 NSCLC = tested on: HOP-92 NSCLC
RPMI-8226 leukemia = tested on: RPMI-8226 leukemia
UO-31 renal = tested on: UO-31 renal
HL-60(TB) leukemia = tested on: HL-60(TB) leukemia
K-562 leukemia = tested on: K-562 leukemia
NCI-H460 lung = tested on: NCI-H460 lung
UACC-257 melanoma = tested on: UACC-257 melanoma
BT-549 breast = tested on: BT-549 breast
SK-OV-3 ovarian = tested on: SK-OV-3 ovarian
EKVX NSCLC = tested on: EKVX NSCLC
ACHN renal = tested on: ACHN renal
SK-MEL-2 melanoma = tested on: SK-MEL-2 melanoma
SK-MEL-5 melanoma = tested on: SK-MEL-5 melanoma
NCI-H226 lung = tested on: NCI-H226 lung
U251 CNS = tested on: U251 CNS
UACC-62 melanoma = tested on: UACC-62 melanoma

Cc1ccc(CNc2c3ccccc3nc3ccccc23)cc1
GI50 (NCI/ADR-RES ovarian): 1740 nM | TGI (NCI/ADR-RES ovarian): 5.35 µM | GI50 (MOLT-4 leukemia): 2850 nM | TGI (MOLT-4 leukemia): 10.5 µM | GI50 (NCI-H522 lung): 1670 nM | TGI (NCI-H522 lung): 4.75 µM | GI50 (MCF7 breast): 1990 nM | TGI (MCF7 breast): 5.03 µM | GI50 (SF-295 CNS): 2530 nM | TGI (SF-295 CNS): 8.87 µM | GI50 (SW-620 colon): 1620 nM | TGI (SW-620 colon): 5.32 µM | GI50 (MALME-3M melanoma): 1660 nM | TGI (MALME-3M melanoma): 3.18 µM | GI50 (SN12C renal): 2600 nM | TGI (SN12C renal): 11.1 µM | GI50 (MDA-MB-435): 1630 nM | TGI (MDA-MB-435): 3.1 µM | GI50 (A549 NSCLC): 1940 nM | TGI (A549 NSCLC): 5.05 µM | GI50 (OVCAR-5 ovarian): 1990 nM | TGI (OVCAR-5 ovarian): 8.08 µM | GI50 (MDA-MB-231 breast): 1800 nM | TGI (MDA-MB-231 breast): 4.52 µM | GI50 (CAKI-1 renal): 1530 nM | TGI (CAKI-1 renal): 4.57 µM | GI50 (IGROV1 ovarian): 1880 nM | TGI (IGROV1 ovarian): 5.56 µM | GI50 (SR leukemia): 1560 nM | TGI (SR leukemia): 6.22 µM | GI50 (SF-268 CNS): 2980 nM | TGI (SF-268 CNS): 11.3 µM | GI50 (786-0 renal): 1950 nM | TGI (786-0 renal): 4.26 µM | GI50 (HCT-116 colon): 880 nM | TGI (HCT-116 colon): 6.6 µM | GI50 (RXF 393 renal): 1680 nM | TGI (RXF 393 renal): 3.41 µM | GI50 (A498 renal): 1210 nM | TGI (A498 renal): 2.92 µM | GI50 (HS 578T breast): 2460 nM | TGI (HS 578T breast): 6.6 µM | GI50 (HOP-62 NSCLC): 3.58 µM | TGI (HOP-62 NSCLC): 16.8 µM | GI50 (SK-MEL-28 melanoma): 1840 nM | TGI (SK-MEL-28 melanoma): 4.16 µM | GI50 (CCRF-CEM leukemia): 2480 nM | TGI (CCRF-CEM leukemia): 12.6 µM | GI50 (T-47D breast): 1870 nM | TGI (T-47D breast): 4.83 µM | GI50 (LOX IMVI melanoma): 1480 nM | TGI (LOX IMVI melanoma): 2.84 µM | GI50 (OVCAR-8 ovarian): 2520 nM | TGI (OVCAR-8 ovarian): 10.5 µM | GI50 (OVCAR-4 ovarian): 1540 nM | TGI (OVCAR-4 ovarian): 5.36 µM | GI50 (SF-539 CNS): 1570 nM | TGI (SF-539 CNS): 3.01 µM | GI50 (OVCAR-3 ovarian): 2420 nM | TGI (OVCAR-3 ovarian): 6.22 µM | GI50 (HT29 colon): 2080 nM | TGI (HT29 colon): 10.7 µM | GI50 (TK-10 renal): 2970 nM | TGI (TK-10 renal): 12.6 µM | GI50 (COLO 205 colon): 1570 nM | TGI (COLO 205 colon): 3.59 µM | GI50 (PC-3 prostate): 1870 nM | TGI (PC-3 prostate): 7.11 µM | GI50 (HCT-15 colon): 1800 nM | TGI (HCT-15 colon): 4.42 µM | GI50 (NCI-H23 lung): 1590 nM | TGI (NCI-H23 lung): 4.04 µM | GI50 (HCC-2998 colon): 1720 nM | TGI (HCC-2998 colon): 3.74 µM | GI50 (M14 melanoma): 1530 nM | TGI (M14 melanoma): 3.24 µM | GI50 (KM12 colon): 3.4 µM | TGI (KM12 colon): 12.9 µM | GI50 (DU-145 prostate): 3.02 µM | TGI (DU-145 prostate): 11.4 µM | GI50 (SNB-19 CNS): 3.33 µM | TGI (SNB-19 CNS): 14.2 µM | GI50 (SNB-75 CNS): 402 nM | TGI (SNB-75 CNS): 6.8 µM | GI50 (HOP-92 NSCLC): 1360 nM | TGI (HOP-92 NSCLC): 5.05 µM | GI50 (RPMI-8226 leukemia): 1480 nM | TGI (RPMI-8226 leukemia): 3.86 µM | GI50 (UO-31 renal): 1120 nM | TGI (UO-31 renal): 3.17 µM | GI50 (HL-60(TB) leukemia): 2200 nM | TGI (HL-60(TB) leukemia): 5.07 µM | GI50 (K-562 leukemia): 1970 nM | TGI (K-562 leukemia): 13.1 µM | GI50 (NCI-H460 lung): 2020 nM | TGI (NCI-H460 lung): 5.26 µM | GI50 (UACC-257 melanoma): 2170 nM | TGI (UACC-257 melanoma): 5.06 µM | GI50 (BT-549 breast): 2430 nM | TGI (BT-549 breast): 6.34 µM | GI50 (SK-OV-3 ovarian): 2590 nM | TGI (SK-OV-3 ovarian): 10.8 µM | GI50 (EKVX NSCLC): 2060 nM | TGI (EKVX NSCLC): 8.04 µM | GI50 (ACHN renal): 1630 nM | TGI (ACHN renal): 3.95 µM | GI50 (SK-MEL-2 melanoma): 2060 nM | TGI (SK-MEL-2 melanoma): 4.47 µM | GI50 (SK-MEL-5 melanoma): 1660 nM | TGI (SK-MEL-5 melanoma): 3.06 µM | GI50 (NCI-H226 lung): 1870 nM | TGI (NCI-H226 lung): 5.12 µM | GI50 (U251 CNS): 2650 nM | TGI (U251 CNS): 10.4 µM | GI50 (UACC-62 melanoma): 1750 nM | TGI (UACC-62 melanoma): 4.1 µM

C=CC[C@H]1[C@@H](O[Si](C)(C)C(C)(C)C)[C@H](n2ccc(=O)[nH]c2=O)O[C@@H]1CO[Si](C)(C)C(C)(C)C
TGI (NCI/ADR-RES ovarian): 4.95 µM | TGI (MOLT-4 leukemia): 8.66 µM | TGI (NCI-H522 lung): 3.93 µM | TGI (MCF7 breast): 3.8 µM | TGI (SF-295 CNS): 3.93 µM | TGI (SW-620 colon): 3.39 µM | TGI (MALME-3M melanoma): 9.04 µM | TGI (SN12C renal): 3.32 µM | TGI (MDA-MB-435): 4.36 µM | TGI (A549 NSCLC): 5.8 µM | TGI (OVCAR-5 ovarian): 3.91 µM | TGI (MDA-MB-231 breast): 5.4 µM | TGI (CAKI-1 renal): 4.42 µM | TGI (IGROV1 ovarian): 6.05 µM | TGI (SR leukemia): 5.95 µM | TGI (SF-268 CNS): 8.64 µM | TGI (786-0 renal): 3.01 µM | TGI (HCT-116 colon): 3.11 µM | TGI (RXF 393 renal): 3.63 µM | TGI (A498 renal): 7.83 µM | TGI (HS 578T breast): 12.2 µM | TGI (HOP-62 NSCLC): 4 µM | TGI (SK-MEL-28 melanoma): 3.01 µM | TGI (CCRF-CEM leukemia): 16 µM | TGI (T-47D breast): 9.11 µM | TGI (LOX IMVI melanoma): 3.44 µM | TGI (OVCAR-8 ovarian): 3.93 µM | TGI (OVCAR-4 ovarian): 5.97 µM | TGI (SF-539 CNS): 10.4 µM | TGI (OVCAR-3 ovarian): 3.12 µM | TGI (HT29 colon): 2.96 µM | TGI (TK-10 renal): 7.02 µM | TGI (COLO 205 colon): 3.4 µM | TGI (PC-3 prostate): 5.89 µM | TGI (HCT-15 colon): 3.63 µM | TGI (NCI-H23 lung): 5.93 µM | TGI (HCC-2998 colon): 3.74 µM | TGI (M14 melanoma): 3.23 µM | TGI (KM12 colon): 3.49 µM | TGI (DU-145 prostate): 6.64 µM | TGI (SNB-19 CNS): 6.76 µM | TGI (SNB-75 CNS): 3.97 µM | TGI (HOP-92 NSCLC): 2.72 µM | TGI (RPMI-8226 leukemia): 6.03 µM | TGI (UO-31 renal): 3.65 µM | TGI (HL-60(TB) leukemia): 2.59 µM | TGI (K-562 leukemia): 6.1 µM | TGI (NCI-H460 lung): 4.06 µM | TGI (UACC-257 melanoma): 5.34 µM | TGI (BT-549 breast): 7.67 µM | TGI (SK-OV-3 ovarian): 2.68 µM | TGI (EKVX NSCLC): 4.83 µM | TGI (ACHN renal): 5.41 µM | TGI (SK-MEL-2 melanoma): 7.08 µM | TGI (SK-MEL-5 melanoma): 3.18 µM | TGI (NCI-H226 lung): 18.6 µM | TGI (U251 CNS): 4.44 µM | TGI (UACC-62 melanoma): 3.5 µM
